Measured values from patent publication US20060035961A1, “Cyclopentane heptan(ENE)OIC acid, 2-heteroarylalkenyl derivatives as therapeutic agents” (ALLERGAN, INC., priority 2004, published 2006).
Blank lines part the entries; values can stand above or below the compound they belong to.

What was measured:
Format in all cases: cell-based
hFP = biological target: T1, hFP (Homo sapiens, UniProt P43088); assay: FLIPR calcium signal study, hFP; conditions: HEK-293(EBNA) cells expressing recombinant human receptor, read-out: HFP functional data
T1 construct: expressed in transfected cells; host or cells: HEK-293(EBNA)
T1 sequence (P43088 whole entry): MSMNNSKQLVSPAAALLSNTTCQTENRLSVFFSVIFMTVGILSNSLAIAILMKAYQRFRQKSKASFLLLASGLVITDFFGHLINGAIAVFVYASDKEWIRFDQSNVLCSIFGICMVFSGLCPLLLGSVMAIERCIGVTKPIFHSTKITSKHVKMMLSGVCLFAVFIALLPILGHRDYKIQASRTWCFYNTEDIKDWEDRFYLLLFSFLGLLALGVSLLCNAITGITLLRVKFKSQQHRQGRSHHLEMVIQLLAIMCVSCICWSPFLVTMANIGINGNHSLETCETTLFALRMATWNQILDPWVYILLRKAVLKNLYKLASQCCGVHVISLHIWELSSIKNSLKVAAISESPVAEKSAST
Protocol: (§1) Methods for FLIPR™ Studies (a) Cell Culture
(§2) HEK-293(EBNA) cells, stably expressing one type or subtype of recombinant human prostaglandin receptors (prostaglandin receptors expressed: hDP/Gqs5; hEP1; hEP2/Gqs5; hEP3A/Gqi5; hEP4/Gqs5; hFP; hIP; hTP), were cultured in 100 mm culture dishes in high-glucose DMEM medium containing 10% fetal bovine serum, 2 mM 1-glutamine, 250 μg/ml geneticin (G418) and 200 μg/ml hygromycin B as selection markers, and 100 units/ml penicillin G, 100 μg/ml streptomycin and 0.25 μg/ml amphotericin B.
(§3) (b) Calcium Signal Studies on the FLIPR™
(§4) Cells were seeded at a density of 5×10^4 cells per well in Biocoat® Poly-D-lysine-coated black-wall, clear-bottom 96-well plates (Becton-Dickinson) and allowed to attach overnight in an incubator at 37° C. Cells were then washed two times with HBSS-HEPES buffer (Hanks Balanced Salt Solution without bicarbonate and phenol red, 20 mM HEPES, pH 7.4) using a Denley Cellwash plate washer (Labsystems). After 45 minutes of dye-loading in the dark, using the calcium-sensitive dye Fluo-4 AM at a final concentration of 2 μM, plates were washed four times with HBSS-HEPES buffer to remove excess dye leaving 100 μl in each well. Plates were re-equilibrated to 37° C. for a few minutes.
(§5) Cells were excited with an Argon laser at 488 nm, and emission was measured through a 510-570 nm bandwidth emission filter (FLIPR™, Molecular Devices, Sunnyvale, Calif.). Drug solution was added in a 50 μl volume to each well to give the desired final concentration. The peak increase in fluorescence intensity was recorded for each well. On each plate, four wells each served as negative (HBSS-HEPES buffer) and positive controls (standard agonists: BW245C (hDP); PGE2 (hEP1; hEP2/Gqs5; hEP3A/Gqi5; hEP4/Gqs5); PGF2, (hFP); carbacyclin (hIP); U-46619 (hTP), depending on receptor). The peak fluorescence change in each drug-containing well was then expressed relative to the controls.
(§6) Compounds were tested in a high-throughput (HTS) or concentration-response (CoRe) format. In the HTS format, forty-four compounds per plate were examined in duplicates at a concentration of 10^−5 M. To generate concentration-response curves, four compounds per plate were tested in duplicates in a concentration range between 10^−5 and 10^−11 M. The duplicate values were averaged. In either, HTS or CoRe format each compound was tested on at least 3 separate plates using cells from different passages to give an n≧3.

hEP4/Gqs5 = biological target: T2, hEP4/Gqs5 (Homo sapiens, UniProt P35408); assay: FLIPR calcium signal study, hEP4/Gqs5; conditions: HEK-293(EBNA) cells expressing recombinant human receptor, read-out: HEP4 functional data
T2 construct: expressed in transfected cells; host or cells: HEK-293(EBNA)
T2 sequence (P35408 whole entry): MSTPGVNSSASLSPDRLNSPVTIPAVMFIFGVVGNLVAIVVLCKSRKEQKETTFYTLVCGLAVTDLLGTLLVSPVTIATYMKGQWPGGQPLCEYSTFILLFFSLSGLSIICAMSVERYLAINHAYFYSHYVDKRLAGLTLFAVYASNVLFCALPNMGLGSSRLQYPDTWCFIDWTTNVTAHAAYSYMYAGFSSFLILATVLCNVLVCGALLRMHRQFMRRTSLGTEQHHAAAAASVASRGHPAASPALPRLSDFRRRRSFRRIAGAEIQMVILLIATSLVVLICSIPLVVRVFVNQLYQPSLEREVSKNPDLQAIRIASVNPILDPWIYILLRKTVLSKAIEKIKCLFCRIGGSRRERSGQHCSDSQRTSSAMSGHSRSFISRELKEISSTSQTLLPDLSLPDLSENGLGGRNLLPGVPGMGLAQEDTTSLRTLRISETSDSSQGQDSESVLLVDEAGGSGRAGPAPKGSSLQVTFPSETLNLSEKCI
Protocol: as §1, §2, §3, §4, §5, §6

hTP = biological target: T3, hTP (Homo sapiens, UniProt P21731); assay: FLIPR calcium signal study, hTP; conditions: HEK-293(EBNA) cells expressing recombinant human receptor, read-out: HTP functional data
T3 construct: expressed in transfected cells; host or cells: HEK-293(EBNA)
T3 sequence (P21731 1-343): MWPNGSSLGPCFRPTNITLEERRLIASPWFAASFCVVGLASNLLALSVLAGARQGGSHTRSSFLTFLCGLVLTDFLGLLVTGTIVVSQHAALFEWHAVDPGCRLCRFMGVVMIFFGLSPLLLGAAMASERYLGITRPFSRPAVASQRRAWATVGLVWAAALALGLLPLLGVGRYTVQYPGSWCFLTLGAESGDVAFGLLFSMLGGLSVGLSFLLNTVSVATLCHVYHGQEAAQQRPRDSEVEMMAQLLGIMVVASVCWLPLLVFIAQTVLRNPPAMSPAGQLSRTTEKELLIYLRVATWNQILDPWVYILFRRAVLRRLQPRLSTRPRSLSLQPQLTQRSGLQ
Protocol: as §1, §2, §3, §4, §5, §6

hIP = biological target: T4, hIP (Homo sapiens, UniProt P43119); assay: FLIPR calcium signal study, hIP; conditions: HEK-293(EBNA) cells expressing recombinant human receptor, read-out: HIP functional data
T4 construct: expressed in transfected cells; host or cells: HEK-293(EBNA)
T4 sequence (P43119 whole entry): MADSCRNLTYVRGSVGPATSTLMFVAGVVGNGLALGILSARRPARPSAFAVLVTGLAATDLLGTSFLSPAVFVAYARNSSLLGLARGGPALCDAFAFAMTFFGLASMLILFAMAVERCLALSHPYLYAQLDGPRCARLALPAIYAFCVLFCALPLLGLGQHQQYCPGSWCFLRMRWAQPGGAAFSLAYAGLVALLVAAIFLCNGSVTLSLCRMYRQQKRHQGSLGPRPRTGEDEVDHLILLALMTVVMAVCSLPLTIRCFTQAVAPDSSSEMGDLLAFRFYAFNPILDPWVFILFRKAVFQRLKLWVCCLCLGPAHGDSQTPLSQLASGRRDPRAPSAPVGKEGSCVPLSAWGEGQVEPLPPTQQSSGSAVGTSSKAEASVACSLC
Protocol: as §1, §2, §3, §4, §5
Compounds were tested in a high-throughput (HTS) or concentration-response (CoRe) format. […]

hEP3A/Gqi5 = biological target: T5, hEP3A/Gqi5 (Homo sapiens, UniProt P43115); assay: FLIPR calcium signal study, hEP3A/Gqi5; conditions: HEK-293(EBNA) cells expressing recombinant human receptor, read-out: HEP3A functional data
T5 construct: expressed in transfected cells; host or cells: HEK-293(EBNA)
T5 sequence (P43115 1-390): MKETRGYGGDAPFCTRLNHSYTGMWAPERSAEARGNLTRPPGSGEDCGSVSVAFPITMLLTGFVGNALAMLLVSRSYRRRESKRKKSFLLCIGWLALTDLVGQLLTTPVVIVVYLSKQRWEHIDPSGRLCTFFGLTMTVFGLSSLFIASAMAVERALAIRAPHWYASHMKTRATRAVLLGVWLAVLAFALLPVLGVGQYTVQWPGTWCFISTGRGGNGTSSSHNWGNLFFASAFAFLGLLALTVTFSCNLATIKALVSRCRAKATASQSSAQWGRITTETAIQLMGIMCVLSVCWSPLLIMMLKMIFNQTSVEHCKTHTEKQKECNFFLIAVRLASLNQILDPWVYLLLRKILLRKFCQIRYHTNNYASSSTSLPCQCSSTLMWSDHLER
Protocol: as §1, §2, §3
Cells were seeded at a density of 5×10^4 cells per well in Biocoat® Poly-D-lysine-coated black-wall, clear-bottom 96-well plates (Becton-Dickinson) and allowed to attach overnight in an incubator at 37° C. Cells were then washed two times with HBSS-HEPES buffer (Hanks Balanced Salt Solution without bicarbonate and phenol red, 20 mM HEPES, pH 7.4) using a Denley Cellwash plate washer (Labsystems). […]
Cells were excited with an Argon laser at 488 nm, and emission was measured through a 510-570 nm bandwidth emission filter (FLIPR™, Molecular Devices, Sunnyvale, Calif.). […] The peak increase in fluorescence intensity was recorded for each well. […] The peak fluorescence change in each drug-containing well was then expressed relative to the controls. […]

- EC50 (hEP4/Gqs5): > 10 µM
Compound: Cc1sc(CC[C@H](O)/C=C/[C@H]2C(C)CC(O)[C@@H]2C/C=C\CCCC(=O)NCCO)cc1Br (stereo partly drawn) [Compound 16L, (Z)-7-{(1R,2R)-2-[(E)-(S)-5-(4-Bromo-5-methyl-thiophen-2-yl)-3-hydroxy-pent-1-enyl]-5-hydroxy-3-methyl-cyclopentyl}-hept-5-enoic acid (2-hydroxy-ethyl)-amide]

- EC50 (hFP): ≥ 10 µM
- EC50 (hEP4/Gqs5): > 10 µM
- EC50 (hTP): 1.95 µM
Compound: Cc1sc(CC[C@H](O)/C=C/[C@H]2C(C)CC(O)[C@@H]2C/C=C\CCCC(N)=O)cc1Br (stereo partly drawn) [Compound 17H, (Z)-7-{(1R,2R)-2-[(E)-(S)-5-(4-Bromo-5-methyl-thiophen-2-yl)-3-hydroxy-pent-1-enyl]-5-hydroxy-3-methyl-cyclopentyl}-hept-5-enoic acid amide]

- EC50 (hFP): > 10 µM
Compound: Cc1sc(CC[C@H](O)/C=C/[C@H]2C(C)CC(O)[C@@H]2C/C=C\CCCC(N)=O)cc1Br (stereo partly drawn) [Compound 17L, (Z)-7-{(1R,2R)-2-[(E)-(S)-5-(4-Bromo-5-methyl-thiophen-2-yl)-3-hydroxy-pent-1-enyl]-5-hydroxy-3-methyl-cyclopentyl}-hept-5-enoic acid amide]

- EC50 (hFP): 5.42 µM
- EC50 (hEP3A/Gqi5): > 10 µM
- EC50 (hTP): > 10 µM
Compound: CCC1CC(O)[C@H](C/C=C\CCCC(N)=O)[C@H]1/C=C/[C@@H](O)CCc1cc(Br)c(C)s1 (stereo partly drawn) [Compound 20H, (Z)-7-{(1R,2R)-2-[(E)-(S)-5-(4-Bromo-5-methyl-thiophen-2-yl)-3-hydroxy-pent-1-enyl]-3-ethyl-5-hydroxy-cyclopentyl}-hept-5-enoic acid amide]

- EC50 (hFP): > 10 µM
- EC50 (hTP): > 10 µM
Compound: CCNC(=O)CCC/C=C\C[C@H]1C(O)CC[C@@H]1/C=C/[C@@H](O)CCc1cc(Br)c(C)s1 (stereo partly drawn) [Compound 21H, (Z)-7-{(1R,2R)-2-[(E)-(S)-5-(4-Bromo-5-methyl-thiophen-2-yl)-3-hydroxy-pent-1-enyl]-5-hydroxy-cyclopentyl}-hept-5-enoic acid ethylamide]

- EC50 (hFP): > 10 µM
- EC50 (hTP): > 10 µM
Compound: Cc1sc(CC[C@H](O)/C=C/[C@H]2CCC(O)[C@@H]2C/C=C\CCCC(=O)NCCO)cc1Br (stereo partly drawn) [Compound 22H, (Z)-7-{(1R,2R)-2-[(E)-(S)-5-(4-Bromo-5-methyl-thiophen-2-yl)-3-hydroxy-pent-1-enyl]-5-hydroxy-cyclopentyl}-hept-5-enoic acid (2-hydroxy-ethyl)-amide]

- EC50 (hFP): > 10 µM
- EC50 (hTP): 2.13 µM
Compound: Cc1sc(CC[C@H](O)/C=C/[C@H]2CCC(O)[C@@H]2C/C=C\CCCC(N)=O)cc1Br (stereo partly drawn) [Compound 23H, (Z)-7-{(1R,2R)-2-[(E)-(S)-5-(4-Bromo-5-methyl-thiophen-2-yl)-3-hydroxy-pent-1-enyl]-5-hydroxy-cyclopentyl}-hept-5-enoic acid amide]

- EC50 (hFP): 2.14 µM
Compound: CCNC(=O)CCC/C=C\C[C@@H]1[C@@H](/C=C/[C@@H](O)CCc2cc(Br)c(C)s2)[C@H](O)C[C@@H]1O [Control, reference compound]

Second part, the compound before the results:

Compound: C=CC1CC(O)[C@H](C/C=C\CCCC(=O)NCCO)[C@H]1/C=C/[C@@H](O)CCc1cc(Br)c(C)s1 (stereo partly drawn) [Compound 12H, (Z)-7-{(1R,2S)-2-[(E)-(S)-5-(4-Bromo-5-methyl-thiophen-2-yl)-3-hydroxy-pent-1-enyl]-5-hydroxy-3-vinyl-cyclopentyl}-hept-5-enoic acid (2-hydroxy-ethyl)-amide]
- EC50 (hFP): > 10 µM
- EC50 (hEP4/Gqs5): > 10 µM
- EC50 (hTP): > 10 µM
- EC50 (hIP): > 10 µM

Compound: C=CC1CC(O)[C@H](C/C=C\CCCC(=O)NCCO)[C@H]1/C=C/[C@@H](O)CCc1cc(Br)c(C)s1 (stereo partly drawn) [Compound 12L, (Z)-7-{(1R,2S)-2-[(E)-(S)-5-(4-Bromo-5-methyl-thiophen-2-yl)-3-hydroxy-pent-1-enyl]-5-hydroxy-3-vinyl-cyclopentyl}-hept-5-enoic acid (2-hydroxy-ethyl)-amide]
- EC50 (hFP): > 10 µM
- EC50 (hTP): > 10 µM
- EC50 (hIP): > 10 µM

Compound: C=CC1CC(O)[C@H](C/C=C\CCCC(N)=O)[C@H]1/C=C/[C@@H](O)CCc1cc(Br)c(C)s1 (stereo partly drawn) [Compound 13H, (Z)-7-{(1R,2S)-2-[(E)-(S)-5-(4-Bromo-5-methyl-thiophen-2-yl)-3-hydroxy-pent-1-enyl]-5-hydroxy-3-vinyl-cyclopentyl}-hept-5-enoic acid amide]
- EC50 (hFP): 0.584 µM
- EC50 (hEP3A/Gqi5): 7.08 µM
- EC50 (hTP): 2.52 µM
- EC50 (hIP): > 10 µM

Compound: C=CC1CC(O)[C@H](C/C=C\CCCC(N)=O)[C@H]1/C=C/[C@@H](O)CCc1cc(Br)c(C)s1 (stereo partly drawn) [Compound 13L, (Z)-7-{(1R,2S)-2-[(E)-(S)-5-(4-Bromo-5-methyl-thiophen-2-yl)-3-hydroxy-pent-1-enyl]-5-hydroxy-3-vinyl-cyclopentyl}-hept-5-enoic acid amide]
- EC50 (hEP4/Gqs5): > 10 µM

Compound: C=CC1CC(O)[C@H](C/C=C\CCCC(=O)NCC)[C@H]1/C=C/[C@@H](O)CCc1cc(Br)c(C)s1 (stereo partly drawn) [Compound 14H, (Z)-7-{(1R,2S)-2-[(E)-(S)-5-(4-Bromo-5-methyl-thiophen-2-yl)-3-hydroxy-pent-1-enyl]-5-hydroxy-3-vinyl-cyclopentyl}-hept-5-enoic acid ethylamide]
- EC50 (hFP): > 10 µM

Compound: CCNC(=O)CCC/C=C\C[C@H]1C(O)CC(C)[C@@H]1/C=C/[C@@H](O)CCc1cc(Br)c(C)s1 (stereo partly drawn) [Compound 15H, (Z)-7-{(1R,2R)-2-[(E)-(S)-5-(4-Bromo-5-methyl-thiophen-2-yl)-3-hydroxy-pent-1-enyl]-5-hydroxy-3-methyl-cyclopentyl}-hept-5-enoic acid ethylamide]
- EC50 (hFP): > 10 µM
- EC50 (hEP4/Gqs5): > 10 µM
- EC50 (hTP): > 10 µM

Compound: CCNC(=O)CCC/C=C\C[C@H]1C(O)CC(C)[C@@H]1/C=C/[C@@H](O)CCc1cc(Br)c(C)s1 (stereo partly drawn) [Compound 15L, (Z)-7-{(1R,2R)-2-[(E)-(S)-5-(4-Bromo-5-methyl-thiophen-2-yl)-3-hydroxy-pent-1-enyl]-5-hydroxy-3-methyl-cyclopentyl}-hept-5-enoic acid ethylamide]
- EC50 (hEP4/Gqs5): > 10 µM

Compound: Cc1sc(CC[C@H](O)/C=C/[C@H]2C(C)CC(O)[C@@H]2C/C=C\CCCC(=O)NCCO)cc1Br (stereo partly drawn) [Compound 16H, (Z)-7-{(1R,2R)-2-[(E)-(S)-5-(4-Bromo-5-methyl-thiophen-2-yl)-3-hydroxy-pent-1-enyl]-5-hydroxy-3-methyl-cyclopentyl}-hept-5-enoic acid (2-hydroxy-ethyl)-amide]
- EC50 (hFP): ≥ 10 µM
- EC50 (hTP): 1.38 µM
